Source: patent US10307413B2, “Tetrahydro- and dihydro-isoquinoline PRMT5 inhibitors and uses thereof” (Epizyme, Inc., priority 2013, dated 2019)
Like-named read-outs stand apart in the source and are kept apart here.

Columns and labels:
[1] = system: symmetric di-methyl arginine in Z-138 cells; assay: Z-138 Methylation Assay (In Cell Western for symmetric di-methyl arginine and DNA content); format: cell-based; conditions: read-out: ICW EC50
Excerpt: [formula] [formula] Where top and bottom are the normally allowed to float, but may be fixed at 100 or 0 respectively in a 3-parameter fit. The Hill Coefficient normally allowed to float but may also be fixed at 1 in a 3-parameter fit. Y is the % inhibition and X is the compound concentration.
RPMI/Glutamax medium, penicillin-streptomycin, heat inactivated fetal bovine serum, and D-PBS were purchased from Life Technologies, Grand Island, N.Y., USA. Odyssey blocking buffer, 800CW goat anti-rabbit IgG (H+L) antibody, and Licor Odyssey infrared scanner were purchased from Licor Biosciences, Lincoln, Nebr., USA. Symmetric di-methyl arginine antibody was purchased from EMD Millipore, Billerica, Mass., USA. 16% Paraformaldehyde was purchased from Electron Microscopy Sciences, Hatfield, Pa., USA.
Cell Treatment, in Cell Western (ICW) for Detection of Symmetric Di-Methyl Arginine and DNA Content.
Z-138 cells were seeded in assay medium at a concentration of 50,000 cells per mL to a 384-well cell culture plate with 50 μL per well. Compound (100 nL) from 384 well source plates was added directly to 384 well cell plate. Plates were incubated at 37° C., 5% CO2 for 96 hours. […] Plates were incubated at room temperature for 30 minutes then incubated at 37° C., 5% CO2 for 5 hours. After the incubation, 40 μL per well of 8% paraformaldehyde in PBS (16% paraformaldahyde was diluted to 8% in PBS) was added to each plate and incubated for 30 minutes. […] Next 30 μL per well of Odyssey blocking buffer were added to each plate and incubated 1 hour at room temperature. Blocking buffer was removed and 20 μL per well of primary antibody was added (symmetric di-methyl arginine diluted 1:100 in Odyssey buffer with 0.1% Tween 20 (v/v)) and plates were incubated overnight (16 hours) at 4° C. Plates were washed 5 times with 100 μL per well of wash buffer. Next 20 μL per well of secondary antibody was added (1:200 800CW goat anti-rabbit IgG (H+L) antibody, 1:1000 DRAQ5 (Biostatus limited) in Odyssey buffer with 0.1% Tween 20 (v/v)) and incubated for 1 hour at room temperature. The plates were washed 5 times with 100 μL per well wash buffer then 1 time with 100 μL per well of water. Plates were allowed to dry at room temperature then imaged on the Licor Odyssey machine which measures integrated intensity at 700 nm and 800 nm wavelengths. Both 700 and 800 channels were scanned.
First, the ratio for each well was determined by:
Each plate included fourteen control wells of DMSO only treatment (minimum inhibition) as well as fourteen control wells for maximum inhibition treated with 3 μM of a reference compound (Background wells). The average of the ratio values for each control type was calculated and used to determine the percent inhibition for each test well in the plate. Reference compound was serially diluted three-fold in DMSO for a total of nine test concentrations, beginning at 3 μM. Percent inhibition was determined and IC50 curves were generated using triplicate wells per concentration of compound. Percent Inhibition=100−

[2] = system: Z-138 cell line; assay: Z-138 Proliferation Assay (Cell Titer Glo, 5 days); format: cell-based; conditions: Homo sapiens, 120 h; Z-138 cells, 5 days; read-out: Proliferation EC50
Excerpt: RPMI/Glutamax medium, penicillin-streptomycin, heat inactivated fetal bovine serum were purchased from Life Technologies, Grand Island, N.Y., USA. V-bottom polypropylene 384-well plates were purchased from Greiner Bio-One, Monroe, N.C., USA. Cell culture 384-well white opaque plates were purchased from Perkin Elmer, Waltham, Mass., USA. Cell-Titer Glo® was purchased from Promega Corporation, Madison, Wis., USA. SpectraMax M5 plate reader was purchased from Molecular Devices LLC, Sunnyvale, Calif., USA.
A compound source plate was prepared by performing triplicate nine-point 3-fold serial dilutions in DMSO, beginning at 10 mM (final top concentration of compound in the assay was 20 μM and the DMSO was 0.2%). A 100 nL aliquot from the compound stock plate was added to its respective well in the cell plate. […] After addition of compounds, assay plates were incubated for 5 days at 37° C., 5% CO2, relative humidity >90%.
Cell viability was measured by quantitation of ATP present in the cell cultures, adding […] of Cell Titer Glo® reagent to the cell plates. Luminescence was read in the SpectraMax M5 microplate reader. The concentration of compound inhibiting cell viability by 50% was determined using a 4-parametric fit of the normalized dose response curves.

COc1ccc2cc(C(=O)NCC(O)CN3CCc4ccccc4C3)ccc2n1 (stereo not shown) [Compound 155]
EC50 ([1]; Homo sapiens): 1000 to 10000 nM
EC50 [2]: > 20000 nM

O=C(NC[C@H](O)CN1CCc2ccccc2C1)c1cc(NC2CN(CC(F)(F)F)C2)ncn1 [Compound 282]
EC50 ([1]; Homo sapiens): < 100 nM
EC50 [2]: 1000 to 10000 nM

O=C(NCC(O)CN1CCc2ccccc2C1)c1cccc(NC2CCNC2)c1 (stereo not shown) [Compound 93]
EC50 ([1]; Homo sapiens): 1000 to 10000 nM
EC50 [2]: > 20000 nM

O=C(NCC(O)CN1CCc2ccccc2C1)c1cccc(NC2CCOCC2)n1 (stereo not shown) [Compound 73]
EC50 ([1]; Homo sapiens): < 100 nM
EC50 [2]: 1000 to 10000 nM

CN1CCC(c2cccc(C(=O)NCC(O)CN3CCc4ccccc4C3)c2)C1 (stereo not shown) [Compound 38, N-(3-(3,4-dihydroisoquinolin-2(1H)-yl)-2-hydroxypropyl)-3-(1-methylpyrrolidin-3-yl)benzamide]
EC50 ([1]; Homo sapiens): 101 to 1000 nM
EC50 [2]: 10000 to 50000 nM

O=C(NCC(O)CN1CCc2ccccc2C1)c1ncc[nH]1 (stereo not shown) [Compound 170]
EC50 ([1]; Homo sapiens): 101 to 1000 nM
EC50 [2]: > 20000 nM

O=C(NC[C@H](O)CN1CCc2ccccc2C1)c1cc(NC2CCOC2)ncn1 (stereo partly shown) [Compound 230]
EC50 ([1]; Homo sapiens): < 100 nM
EC50 [2]: 101 to 1000 nM

CN(c1cc(C(=O)NC[C@H](O)CN2CCc3ccccc3C2)ccn1)C1CCOCC1 [Compound 324]
EC50 ([1]; Homo sapiens): < 100 nM
EC50 [2]: 101 to 1000 nM

O=C(NCC(O)CN1CCc2ccccc2C1)c1ccc2c(c1)OCCN2 (stereo not shown) [Compound 88]
EC50 ([1]; Homo sapiens): 101 to 1000 nM
EC50 [2]: > 20000 nM

O=C(NCC(O)CN1CCc2ccccc2C1)c1cccc(N2CCS(=O)(=O)CC2)c1 (stereo not shown) [Compound 164]
EC50 ([1]; Homo sapiens): < 100 nM
EC50 [2]: 1000 to 10000 nM

O=C(NCC(O)CN1CCc2ccccc2C1)c1cccc(NC2CCCOC2)c1 (stereo not shown) [Compound 60]
EC50 ([1]; Homo sapiens): 101 to 1000 nM
EC50 [2]: 1000 to 10000 nM

Cn1nc(NC2CCOCC2)cc1C(=O)NCC(O)CN1CCc2ccccc2C1 (stereo not shown) [Compound 311]
EC50 ([1]; Homo sapiens): < 100 nM
EC50 [2]: < 100 nM

CNCCN(C)c1cc(C(=O)NC[C@H](O)CN2CCc3ccccc3C2)ccn1 [Compound 233]
EC50 ([1]; Homo sapiens): 101 to 1000 nM
EC50 [2]: 1000 to 10000 nM

CS(=O)(=O)N1CCC(Nc2cc(C(=O)NC[C@H](O)CN3CCc4ccccc4C3)ccn2)CC1 [Compound 225]
EC50 ([1]; Homo sapiens): < 100 nM
EC50 [2]: < 100 nM

CC(=O)N(C)CCN(C)c1cc(C(=O)NC[C@H](O)CN2CCc3ccccc3C2)ccn1 [Compound 291]
EC50 ([1]; Homo sapiens): < 100 nM
EC50 [2]: 1000 to 10000 nM

CC(=O)N1CC(Nc2cc(C(=O)NC[C@H](O)CN3CCc4ccccc4C3)ncn2)C1 [Compound 284, (S)-6-((1-acetylazetidin-3-yl)amino)-N-(3-(3,4-dihydroisoquinolin-2(1H)-yl)-2-hydroxypropyl)pyrimidine-4-carboxamide]
EC50 ([1]; Homo sapiens): < 100 nM
EC50 [2]: < 100 nM

CC(=O)N1CCC(Oc2ccc(C(=O)NCC(O)CN3CCc4ccccc4C3)cc2)C1 (stereo not shown) [Compound 197]
EC50 ([1]; Homo sapiens): < 100 nM
EC50 [2]: 101 to 1000 nM

C[C@@H]1COCCC1Nc1cccc(C(=O)NC[C@H](O)CN2CCc3ccccc3C2)c1 (stereo partly shown) [Compound 212]
EC50 ([1]; Homo sapiens): < 100 nM
EC50 [2]: 101 to 1000 nM

O=C(NC[C@H](O)CN1CCc2ccccc2C1)c1ccc2c(c1)CCO2 [Compound 243]
EC50 ([1]; Homo sapiens): 101 to 1000 nM
EC50 [2]: 1000 to 10000 nM

CN1CCC(N(C)c2cccc(C(=O)NCC(O)CN3CCc4ccccc4C3)c2)C1 (stereo not shown) [Compound 132]
EC50 ([1]; Homo sapiens): 101 to 1000 nM
EC50 [2]: 1000 to 10000 nM

O=C(NC[C@H](O)CN1CCc2ccccc2C1)c1ccc2c(c1O)NCCC2 [Compound 328]
EC50 ([1]; Homo sapiens): > 1000 nM
EC50 [2]: > 20000 nM

O=C(NC[C@H](O)CN1CCc2ccccc2C1)c1ccnc(NC2CCC2)c1 [Compound 188]
EC50 ([1]; Homo sapiens): < 100 nM
EC50 [2]: < 100 nM

O=C(NC[C@H](O)CN1CCc2ccccc2C1)c1ccnc(OC2CCOCC2)c1 [Compound 323]
EC50 ([1]; Homo sapiens): < 100 nM
EC50 [2]: 101 to 1000 nM

CC(C)(C)C(=O)N1CCC(Oc2ccc(C(=O)NC[C@H](O)CN3CCc4ccccc4C3)cc2)CC1 [Compound 322]
EC50 ([1]; Homo sapiens): < 100 nM
EC50 [2]: 101 to 1000 nM

CN(C)C(=O)CCCN1CCN(Cc2cccc(C(=O)NCC(O)CN3CCc4ccccc4C3)c2)CC1 (stereo not shown) [Compound 194]
EC50 ([1]; Homo sapiens): 101 to 1000 nM
EC50 [2]: 1000 to 10000 nM

O=C(NC[C@@H](O)CN1CCc2ccccc2C1)c1cccc(-c2ccccn2)c1 [Compound 19]
EC50 ([1]; Homo sapiens): 101 to 1000 nM
EC50 [2]: 10000 to 50000 nM

CS(=O)(=O)N1CCC(Oc2ccc(C(=O)NCC(O)CN3CCc4ccccc4C3)cc2)CC1 (stereo not shown) [Compound 108]
EC50 ([1]; Homo sapiens): < 100 nM
EC50 [2]: 101 to 1000 nM

CN(c1cc(C(=O)NC[C@H](O)CN2CCc3ccccc3C2)ncn1)C1CCOCC1 [Compound 261]
EC50 ([1]; Homo sapiens): < 100 nM
EC50 [2]: 1000 to 10000 nM

O=C(NCC(O)CN1CCc2ccccc2C1)c1cc(NC2CCOCC2)ncn1 (stereo not shown) [Compound 63]
EC50 ([1]; Homo sapiens): < 100 nM
EC50 [2]: 101 to 1000 nM

CS(=O)(=O)N1CCC(Nc2cccc(C(=O)NCC(O)CN3CCc4ccccc4C3)c2)C1 (stereo not shown) [Compound 122]
EC50 ([1]; Homo sapiens): < 100 nM
EC50 [2]: 101 to 1000 nM

O=C(NC[C@H](O)CN1CCc2ccccc2C1)c1cnc2ccccc2n1 [Compound 245]
EC50 ([1]; Homo sapiens): 101 to 1000 nM
EC50 [2]: 10000 to 50000 nM

O=C(NC[C@@H](O)CN1CCc2ccccc2C1)Oc1ccccc1 [Compound 11, (R)-phenyl (3-(3,4-dihydroisoquinolin-2(1H)-yl)-2-hydroxypropyl)carbamate]
EC50 ([1]; Homo sapiens): 1000 to 10000 nM

CS(=O)(=O)N1CC[C@@H](Nc2cccc(C(=O)NC[C@H](O)CN3CCc4ccccc4C3)c2)C1 [Compound 267]
EC50 ([1]; Homo sapiens): < 100 nM
EC50 [2]: 101 to 1000 nM

CC(=O)N(C)CCN1CCN(Cc2cccc(C(=O)NCC(O)CN3CCc4ccccc4C3)c2)CC1 (stereo not shown) [Compound 252]
EC50 ([1]; Homo sapiens): 101 to 1000 nM
EC50 [2]: 1000 to 10000 nM

NC(=O)CNCCOc1cccc(C(=O)NCC(O)CN2CCc3ccccc3C2)c1 (stereo not shown) [Compound 222]
EC50 ([1]; Homo sapiens): 101 to 1000 nM
EC50 [2]: > 20000 nM

CS(=O)(=O)N1CCC(Nc2cccc(C(=O)NC[C@H](O)CN3CCc4ccccc4C3)c2)CC1 [Compound 216]
EC50 ([1]; Homo sapiens): < 100 nM
EC50 [2]: 101 to 1000 nM

O=C(NCC(O)CN1CCc2ccccc2C1)c1nccc(NC2CCOCC2)n1 (stereo not shown) [Compound 76]
EC50 ([1]; Homo sapiens): 101 to 1000 nM

O=C(NC[C@@H](O)CN1CCc2ccccc2C1)c1cc(NC2COC2)ncn1 [Compound 367]
EC50 [1]: 101 to 1000 nM

O=C(O)CCCN1CCN(Cc2cccc(C(=O)NCC(O)CN3CCc4ccccc4C3)c2)CC1 (stereo not shown) [Compound 158]
EC50 [2]: > 20000 nM

CC1=NN(c2ccc(C(=O)NCC(O)CN3CCc4ccccc4C3)cc2)C(=O)C1 (stereo not shown) [Compound 86]
EC50 ([1]; Homo sapiens): 1000 to 10000 nM

O=C(NC[C@@H](O)CN1CCc2ccccc2C1)c1cccc(OC2CCOCC2)c1 [Compound 83]
EC50 ([1]; Homo sapiens): 101 to 1000 nM

O=C(NCC(O)CN1CCc2ccccc2C1)c1cccc(NCCN2CCOCC2)c1 (stereo not shown) [Compound 61]
EC50 ([1]; Homo sapiens): 101 to 1000 nM

O=C(NCC(O)CN1CCc2ccccc2C1)c1cccc(NC2CCOC2)c1 (stereo not shown) [Compound 45, N-(3-(3,4-dihydroisoquinolin-2(1H)-yl)-2-hydroxypropyl)-3-((tetrahydrofuran-3-yl)amino)benzamide]
EC50 ([1]; Homo sapiens): 101 to 1000 nM

O=C(NCC(O)CN1CCc2ccccc2C1)c1cncc(NC2CCOCC2)n1 (stereo not shown) [Compound 75]
EC50 ([1]; Homo sapiens): 101 to 1000 nM

COCCNc1cccc(C(=O)NCC(O)CN2CCc3ccccc3C2)c1 (stereo not shown) [Compound 72]
EC50 ([1]; Homo sapiens): 1000 to 10000 nM

O=C(NC[C@H](O)CN1CCc2ccccc2C1)c1cccc(NC2CCOCC2)c1 [Compound 44, (S)—N-(3-(3,4-dihydroisoquinolin-2(1H)-yl)-2-hydroxypropyl)-3-((tetrahydro-2H-pyran-4-yl)amino)benzamide]
EC50 [2]: 101 to 1000 nM

CN1CCC(Oc2cccc(C(=O)NCC(O)CN3CCc4ccccc4C3)c2)C1 (stereo not shown) [Compound 134]
EC50 [2]: 10000 to 50000 nM
